The subject of data set [1] is mutant PXR.1 (C285I/C301A). As to the kind of experiment: PXR luciferase reporter assay in HEK293T cells, mutant PXR.1. In kind it is cell-based, human. As to conditions: 10 μM, replicate wells. The method, then: After 24‐h transfection using Lipofectamine® LTX ([…] of plasmid), cells were exposed to FKK5 for 24 h. […] The data are expressed as mean ± SD RLU (relative light units from luciferase assay) normalized to β‐Gal activity in the same well. Differences were tested using 2‐way ANOVA with Tukey's multiple comparison test, and P < 0.05 was considered significant (*).

Another data set relates to Cyp3a11. As to the kind of experiment: PXR target gene expression in pxr -/- mice after FKK6 gavage. As to conditions: pxr-/- (PXR knockout), mouse, oral, 500 μM, 5 doses (60 h), mean. Format: in vivo, mouse. The method, then: (§1) (Scheer et al, 2010) were administered 10% DMSO (n = 3) or FKK6 (n = 3) in 3 or 5 doses, with each dose interval of 12 h. Each gavage dose volume was 100 μl. 2–4 h after the dosing period, mice were sacrificed, and tissues were harvested for further analysis. The mouse studies were performed three independent times over an 18‐month period. All purchased mice were acclimatized in the Einstein vivarium for ~ 2 weeks before experiments started. […]. The room temperature was maintained at 25 ± 2°C with 55 ± 5% humidity. All studies were approved by the Institute of Animal Studies at the Albert Einstein College of Medicine, INC (IACUC # 20160706, 20160701 and preceding protocols), and specific animal protocols were also approved by additional protocols (IACUC# 20170406, 20170504) and Animal Care and Use Review Office (ACURO) of the US Army Medical Research and Materiel Command (PR160167, W81XWH‐17‐1‐0479). […]
(§2) Mouse small, large intestine and liver samples were collected and total RNAs were […]
(§3) isolated. […] Each tissue PCR was […]
(§4) repeated in quadruplicate. The expression was normalized to internal control, GAPDH. ( b,d) The histograms show mean (95 %CI) values, c, mean (SD) and two way ANOVA followed with Tukey's post hoc test. The entire experiment was repeated n = 3 for reproducibility. The data shown is one representative experiment .

For another data set, the system named is mdr1. The description is as above. Format: in vivo, mouse. As to conditions: pxr-/- (PXR knockout), mouse, oral, 500 μM, 5 doses (60 h), mean. The method, then:
as §1, §2, §3, §4

A further data set deals with pxr -/- mice. Described as above. Format: in vivo, mouse. Particulars: for Cyp3a11 fold expression / mdr1 fold expression: Fig 4e. The method, then:
as §1, §2, §3, §4

In another data set the target is T1, SIRT1 (Homo sapiens, UniProt Q96EB6).
T1 construct: full -length N-terminal His-tag protein (MW 83.2 kDa); His-tag (N); purchased Reaction Biology Corp; host or cells: E. coli
As to the kind of experiment: Sirtuin (SIRT1) assay. Format: biochemical. Particulars: substrate Acetylated peptide, replicates. The procedure: Software Tool and reprinted with permission from KINOME scan®, a division of DiscoveRx […]
The following […] assays (HDAC, SIRT1, PRMT1, PARP1, p300, pCAF) were performed by Reaction Biology Corp. FKK6 was screened at a single concentration of 10 μM in duplicate in two separate experiments. The appropriate controls for the individual assays are published. The overall […]
enzyme activity in the assay is reported as a % activity in DMSO control wells. Control IC50 […]
Briefly, for the Sirtuin (SIRT1) assay, human SIRT1 (GenBank
Accession No. NM012238) full -length N-terminal His-tag protein (MW 83.2 kDa) was purified after expression in E. coli. The reaction buffer was freshly prepared and constituted 50 mM Tris-HC l ( p H 8), 137 mM NaCl, 2.7 mM KCl, 1 mM MgCl2, and just before use, 1 mg/mL BSA and 1% DMSO was added. The substrate was a fluorogenic acetylated peptide of p53 residues 379-382 (RHKK (Ac)- AM C) . In th e multi-well format, the 2X enzyme was mixed with the reaction buffer followed by compound (in 100% DMSO) titration via Acoustic technology (Echo550; LabCyte Inc, Sunnyvale, CA) in the nanoliter range. The mixture was spun down and 2X substrate (including NAD+) was added to initiate the reaction at 30° C at 2h under seal. […] Fluorescence kinetic measurements were conducted for 1.5 h in 15 min intervals using Envision (Ex 360nm/Em 460nm). […]

Each structure is given as a SMILES string. Several values for one entry are separate records, joined by “and”; a condition that tells them apart may be missing. Equal entries are not always repeated. Where two headings read alike, the source gives them in different places.

T1 sequence (Q96EB6 whole entry): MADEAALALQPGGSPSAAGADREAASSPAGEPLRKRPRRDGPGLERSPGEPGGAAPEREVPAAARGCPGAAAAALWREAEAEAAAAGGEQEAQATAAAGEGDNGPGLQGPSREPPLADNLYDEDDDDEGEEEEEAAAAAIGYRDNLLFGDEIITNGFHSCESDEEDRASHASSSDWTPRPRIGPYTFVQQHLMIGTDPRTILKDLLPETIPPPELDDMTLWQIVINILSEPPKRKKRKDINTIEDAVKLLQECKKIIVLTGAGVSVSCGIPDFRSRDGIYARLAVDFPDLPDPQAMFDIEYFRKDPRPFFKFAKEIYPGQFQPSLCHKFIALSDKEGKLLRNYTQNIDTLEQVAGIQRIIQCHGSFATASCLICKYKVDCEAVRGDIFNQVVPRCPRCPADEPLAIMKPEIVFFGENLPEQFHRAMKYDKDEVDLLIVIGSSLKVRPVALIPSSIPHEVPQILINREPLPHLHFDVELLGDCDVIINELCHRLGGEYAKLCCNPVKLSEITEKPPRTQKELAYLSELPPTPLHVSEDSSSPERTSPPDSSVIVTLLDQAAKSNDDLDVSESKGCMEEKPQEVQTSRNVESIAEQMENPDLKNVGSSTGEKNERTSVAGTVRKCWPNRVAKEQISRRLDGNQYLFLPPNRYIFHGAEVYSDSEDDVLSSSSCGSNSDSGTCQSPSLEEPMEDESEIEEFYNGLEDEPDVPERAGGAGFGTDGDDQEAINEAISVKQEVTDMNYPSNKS

As to `C#CCC(O)(c1ccncc1)c1cc2ccccc2n1S(=O)(=O)c1ccccc1` (stereo not shown) [FKK6], the “PXR reporter activity, RLU/B-Gal” value in data set [1] was “unable to activate mutant PXR and 17076.9 RLU/B-Gal and 15814.1 RLU/B-Gal and 17887 RLU/B-Gal and 19102.1 RLU/B-Gal”. In addition, the fold induction at 60 h, 500 µM was determined as 0.36 in the data set with Cyp3a11 (large intestine, × DMSO, read-out: Cyp3a11 fold induction, Large Intestine); 1.54 with Cyp3a11 (liver, read-out: Cyp3a11 fold induction, Liver); 0.25 in the data set on Cyp3a11 (small intestine, × DMSO, read-out: Cyp3a11 fold induction, Small Intestine); 0.71 with mdr1 (large intestine, read-out: mdr1 fold induction, Large Intestine); 1.22 in the data set with mdr1 (liver, read-out: mdr1 fold induction, Liver); 1.16 in the data set with mdr1 (small intestine, read-out: mdr1 fold induction, Small Intestine). The “PXR target gene (mdr1) expression across organs” value in the data set on pxr -/- mice (36 h and 60 h) was “no effect”. The Cyp3a11 fold expression with pxr -/- mice (Large Intestine) was 0.69 fold and 0.64 fold and 0.66 fold; in the data set with pxr -/- mice (Liver), 0.84 fold and 1.18 fold and 1.42 fold; with pxr -/- mice (Small Intestine), 0.98 fold and 0.96 fold and 1.09 fold. The mdr1 fold expression in the data set on pxr -/- mice (Large Intestine) is 0.87 fold and 0.67 fold and 0.93 fold; with pxr -/- mice (Small Intestine), 0.52 fold and 0.37 fold and 0.63 fold. In addition, the “target gene expression levels (cyp3a11, mdr1) decrease vs DMSO” value with pxr -/- mice (mouse, in vivo) is recorded as not above 1.5 fold. Also, the “% Enzyme Activity to DMSO controls” value at SIRT1 (10 μM) was 100.03% and 99.84% and 94.47%. Further, the remaining activity at 10 µM at SIRT1 (read-out: % Enzyme Activity to DMSO controls) came out at 100%.

The record behind these values is publication PMC7136958, “Targeting the pregnane X receptor using microbial metabolite mimicry” (EMBO Molecular Medicine, 2020).
